Data taken from ChEMBL document CHEMBL5537119 (Eur J Med Chem, 2024).
pIC50: −log10 of the molar value. Blank lines part the entries; values can stand above or below the molecule they belong to. Calls of active or inactive are those of the source. The rule behind the calls is not given here.

How the values were obtained:
[1] = system: THP-1; experiment: Effect on p21 protein expression in human THP-1 cells assessed as increase in p21 protein expression level at 7.9 uM incubated for 24 hrs by Western blot analysis; assay type: functional, cell-based
[2] = system: THP-1; experiment: cells; settings: Homo sapiens, THP-1, 72 h
Description: Antiproliferative activity against human THP-1 cells assessed as inhibition of cell growth incubated for 72 hrs by MTT assay

[3] = system: CAL-27; experiment: Antiproliferative activity against human CAL-27 cells overexpressing HDAC4 assessed as inhibition of cell growth incubated for 72 hrs by MTT assay; assay type: functional, cell-based; settings: CAL-27, 72 h
[4] = system: CAL-27; experiment: Antiproliferative activity against human CAL-27 cells without HDAC4 expression assessed as inhibition of cell growth incubated for 72 hrs by MTT assay; assay type: functional, cell-based; settings: CAL-27, 72 h
[5] = Effect on p21 mRNA expression in human THP-1 cells assessed as fold increase in p21 mRNA expression at 7.9 uM incubated for 24 hrs by RT-PCR analysis; assay type: functional
[6] = Inhibition of Class IIa/8 HDAC in human THP-1 cells preincubated for 18 hrs followed by substrate addition and measured after 3 hrs by fluorescence based microplate reader assay; assay type: cell-based
[7] = system: CAL-27; experiment: Antitumor activity against human CAL-27 cells without HDAC4 expression xenografted in chick embryo chorio allantoic membrane assessed as reduction in cell proliferation at 5 uM; assay type: functional, cell-based
[8] = system: THP-1; experiment: Induction of apoptosis in human THP-1 cells assessed as caspase3/7 activation at 5 uM incubated for 48 hrs by Hoechst 33342 staining based assay; assay type: functional, cell-based
[9] = system: THP-1; experiment: Induction of apoptosis in human THP-1 cells assessed as subG1 population at 5 uM incubated for 48 hrs by Propidium iodide staining based flow cytometric analysis; assay type: functional, cell-based
[10] = system: THP-1; experiment: Effect on p21 protein expression in human THP-1 cells assessed as increase in p21 protein expression level at 5 uM incubated for 24 hrs by Western blot analysis; assay type: functional, cell-based
[11] = system: THP-1; experiment: Synergistic induction of apoptosis in human THP-1 cells assessed as increase in subG1 population at 5 uM incubated for 48 hrs in the presence of 7.9 nM bortezomib by Propidium iodide staining based flow cytometric analysis; assay type: functional, cell-based
[12] = system: THP-1; experiment: Inhibition of Class IIa/8 HDAC in human THP-1 cells at 100 uM preincubated for 18 hrs followed by substrate addition and measured after 3 hrs by fluorescence based microplate reader assay relative to control; assay type: cell-based; settings: time 21.0 hrs, values are per cent of control
[13] = target: T1, Protein deacetylase HDAC6 (Homo sapiens, UniProt Q9UBN7); experiment: Inhibition of human recombinant HDAC6 using Boc-Lys(Ac)-AMC as substrate preincubated for 5 mins followed by substrate addition and measured after 90 mins by fluorescence based microplate reader analysis
T1 sequence (Q9UBN7 whole entry): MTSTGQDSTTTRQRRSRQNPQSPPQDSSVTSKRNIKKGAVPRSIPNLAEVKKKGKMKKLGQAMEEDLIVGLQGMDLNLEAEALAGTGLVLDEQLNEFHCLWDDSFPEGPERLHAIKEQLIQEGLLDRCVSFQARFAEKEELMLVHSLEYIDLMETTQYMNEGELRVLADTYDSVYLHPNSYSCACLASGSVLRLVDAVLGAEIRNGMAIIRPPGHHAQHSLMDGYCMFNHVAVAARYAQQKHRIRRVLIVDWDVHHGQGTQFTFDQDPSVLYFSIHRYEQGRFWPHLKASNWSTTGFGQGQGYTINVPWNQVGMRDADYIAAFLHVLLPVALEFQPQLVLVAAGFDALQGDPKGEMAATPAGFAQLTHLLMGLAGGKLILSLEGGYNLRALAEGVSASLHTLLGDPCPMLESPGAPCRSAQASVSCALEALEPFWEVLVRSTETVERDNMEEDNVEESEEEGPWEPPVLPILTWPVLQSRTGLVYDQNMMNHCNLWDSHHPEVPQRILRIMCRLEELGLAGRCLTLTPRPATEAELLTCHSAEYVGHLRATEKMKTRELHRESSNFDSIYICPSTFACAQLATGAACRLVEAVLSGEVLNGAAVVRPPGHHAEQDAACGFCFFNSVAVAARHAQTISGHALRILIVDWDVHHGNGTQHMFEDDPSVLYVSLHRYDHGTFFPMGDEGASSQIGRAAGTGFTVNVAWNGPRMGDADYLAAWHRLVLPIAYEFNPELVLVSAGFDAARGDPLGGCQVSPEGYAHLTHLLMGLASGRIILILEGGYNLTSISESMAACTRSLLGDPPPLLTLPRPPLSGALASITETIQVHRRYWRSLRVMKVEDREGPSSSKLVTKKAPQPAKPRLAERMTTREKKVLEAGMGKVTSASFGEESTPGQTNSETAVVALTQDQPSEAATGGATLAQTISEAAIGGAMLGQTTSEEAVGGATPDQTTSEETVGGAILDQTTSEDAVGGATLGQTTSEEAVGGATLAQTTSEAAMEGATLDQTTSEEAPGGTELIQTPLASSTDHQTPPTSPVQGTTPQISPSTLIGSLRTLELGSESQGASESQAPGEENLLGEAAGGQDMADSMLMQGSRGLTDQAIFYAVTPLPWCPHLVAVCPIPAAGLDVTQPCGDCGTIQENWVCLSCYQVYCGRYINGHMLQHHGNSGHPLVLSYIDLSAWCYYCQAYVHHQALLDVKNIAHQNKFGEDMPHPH

[14] = target: T2, Histone deacetylase 8 (Homo sapiens, UniProt Q9BY41); experiment: Inhibition of human recombinant HDAC8 using Boc-Lys-(Tfa)-AMC as substrate preincubated for 5 mins followed by substrate addition and measured after 90 mins by fluorescence based microplate reader analysis
T2 sequence (Q9BY41 whole entry): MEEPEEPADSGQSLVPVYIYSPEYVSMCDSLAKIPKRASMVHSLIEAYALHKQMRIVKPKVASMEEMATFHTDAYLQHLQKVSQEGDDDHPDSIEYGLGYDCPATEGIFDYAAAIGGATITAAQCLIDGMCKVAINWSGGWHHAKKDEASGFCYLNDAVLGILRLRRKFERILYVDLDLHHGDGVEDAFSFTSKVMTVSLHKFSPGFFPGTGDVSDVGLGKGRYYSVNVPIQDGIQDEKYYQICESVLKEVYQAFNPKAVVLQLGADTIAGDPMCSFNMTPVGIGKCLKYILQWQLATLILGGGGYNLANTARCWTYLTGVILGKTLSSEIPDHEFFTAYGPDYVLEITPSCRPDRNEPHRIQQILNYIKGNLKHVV

[15] = target: Histone deacetylase 2 (Homo sapiens, UniProt Q92769); experiment: Inhibition of human recombinant HDAC2 using Boc-Lys(Ac)-AMC as substrate preincubated for 5 mins followed by substrate addition and measured after 90 mins by fluorescence based microplate reader analysis
Histone deacetylase 2, sequence (Q92769 whole entry): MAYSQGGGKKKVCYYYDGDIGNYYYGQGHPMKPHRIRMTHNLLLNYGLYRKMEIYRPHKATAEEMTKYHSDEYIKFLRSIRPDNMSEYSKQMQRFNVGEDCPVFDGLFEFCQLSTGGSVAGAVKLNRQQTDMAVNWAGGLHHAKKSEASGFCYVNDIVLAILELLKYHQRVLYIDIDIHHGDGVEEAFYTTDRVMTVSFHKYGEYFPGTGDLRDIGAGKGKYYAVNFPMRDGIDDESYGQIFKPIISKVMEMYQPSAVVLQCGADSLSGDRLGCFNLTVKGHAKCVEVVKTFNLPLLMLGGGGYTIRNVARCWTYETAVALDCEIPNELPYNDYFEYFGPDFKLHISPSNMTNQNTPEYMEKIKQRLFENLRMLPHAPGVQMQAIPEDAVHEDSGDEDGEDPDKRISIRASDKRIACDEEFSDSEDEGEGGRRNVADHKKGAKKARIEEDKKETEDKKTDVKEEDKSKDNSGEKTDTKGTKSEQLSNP

[16] = target: Histone deacetylase 5 (Homo sapiens, UniProt Q9UQL6); experiment: Inhibition of HDAC5 (unknown origin)
Histone deacetylase 5, sequence (Q9UQL6 whole entry): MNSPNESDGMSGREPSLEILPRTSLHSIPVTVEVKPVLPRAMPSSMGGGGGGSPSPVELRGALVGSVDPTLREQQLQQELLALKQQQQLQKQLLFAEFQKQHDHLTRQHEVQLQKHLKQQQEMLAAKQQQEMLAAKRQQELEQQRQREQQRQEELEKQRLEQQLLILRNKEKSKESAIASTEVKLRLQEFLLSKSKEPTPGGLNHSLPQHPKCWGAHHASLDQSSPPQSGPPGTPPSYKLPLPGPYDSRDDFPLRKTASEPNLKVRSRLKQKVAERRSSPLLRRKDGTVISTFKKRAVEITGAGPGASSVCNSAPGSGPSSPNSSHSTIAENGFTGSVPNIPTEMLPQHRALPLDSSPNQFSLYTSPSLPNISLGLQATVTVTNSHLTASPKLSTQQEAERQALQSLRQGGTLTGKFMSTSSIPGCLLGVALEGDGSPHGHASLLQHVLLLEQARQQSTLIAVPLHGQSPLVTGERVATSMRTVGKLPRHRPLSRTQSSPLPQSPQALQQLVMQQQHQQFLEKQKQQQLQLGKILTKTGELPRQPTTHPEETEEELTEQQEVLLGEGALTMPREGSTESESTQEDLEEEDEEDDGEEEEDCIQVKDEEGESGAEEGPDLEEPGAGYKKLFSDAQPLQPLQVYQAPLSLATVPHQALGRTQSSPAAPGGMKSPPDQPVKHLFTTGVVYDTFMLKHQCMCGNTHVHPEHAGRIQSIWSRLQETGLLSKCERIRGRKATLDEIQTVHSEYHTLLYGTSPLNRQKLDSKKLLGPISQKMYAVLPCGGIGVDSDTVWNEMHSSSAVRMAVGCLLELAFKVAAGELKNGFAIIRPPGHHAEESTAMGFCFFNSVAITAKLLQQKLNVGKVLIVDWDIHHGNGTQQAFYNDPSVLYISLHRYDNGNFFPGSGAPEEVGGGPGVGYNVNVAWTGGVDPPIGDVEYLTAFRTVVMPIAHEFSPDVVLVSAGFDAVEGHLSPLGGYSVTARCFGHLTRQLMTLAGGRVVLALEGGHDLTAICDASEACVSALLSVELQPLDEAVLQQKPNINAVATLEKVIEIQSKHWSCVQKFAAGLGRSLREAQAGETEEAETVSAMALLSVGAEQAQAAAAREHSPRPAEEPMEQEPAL

[17] = system: THP-1; experiment: Inhibition of Class I/IIb HDAC in human THP-1 cells at 100 uM preincubated for 18 hrs followed by substrate addition and measured after 3 hrs by fluorescence based microplate reader assay relative to control; assay type: cell-based; settings: time 21.0 hrs
[18] = system: THP-1; experiment: Synergistic effect on p21 protein expression in human THP-1 cells assessed as increase in p21 protein expression level at 5 uM incubated for 24 hrs in the presence of 7.9 nM bortezomib by Western blot analysis; assay type: functional, cell-based
[19] = system: CAL-27; experiment: Antitumor activity against human CAL-27 cells overexpressing HDAC4 implanted in chick embryo chorio allantoic membrane assessed as reduction in cell proliferation at 5 uM; assay type: functional, cell-based
[20] = system: THP-1; experiment: Antiproliferative activity against human THP-1 cells assessed as reduction in cell viability at 100 uM incubated for 72 hrs by MTT assay relative to control; assay type: functional
[21] = Inhibition of Class I/IIb HDAC in human THP-1 cells preincubated for 18 hrs followed by substrate addition and measured after 3 hrs by fluorescence based microplate reader assay; assay type: cell-based
[22] = system: THP-1; experiment: Synergistic induction of apoptosis in human THP-1 cells assessed as increase in caspase3/7 activation at 5 uM incubated for 48 hrs in the presence of 7.9 nM bortezomib by Hoechst 33342 staining based assay; assay type: functional, cell-based
[23] = target: Histone deacetylase 4 (Homo sapiens, UniProt P56524); experiment: Inhibition of GST-tagged HDAC4 (unknown origin)
Histone deacetylase 4, sequence (P56524 whole entry): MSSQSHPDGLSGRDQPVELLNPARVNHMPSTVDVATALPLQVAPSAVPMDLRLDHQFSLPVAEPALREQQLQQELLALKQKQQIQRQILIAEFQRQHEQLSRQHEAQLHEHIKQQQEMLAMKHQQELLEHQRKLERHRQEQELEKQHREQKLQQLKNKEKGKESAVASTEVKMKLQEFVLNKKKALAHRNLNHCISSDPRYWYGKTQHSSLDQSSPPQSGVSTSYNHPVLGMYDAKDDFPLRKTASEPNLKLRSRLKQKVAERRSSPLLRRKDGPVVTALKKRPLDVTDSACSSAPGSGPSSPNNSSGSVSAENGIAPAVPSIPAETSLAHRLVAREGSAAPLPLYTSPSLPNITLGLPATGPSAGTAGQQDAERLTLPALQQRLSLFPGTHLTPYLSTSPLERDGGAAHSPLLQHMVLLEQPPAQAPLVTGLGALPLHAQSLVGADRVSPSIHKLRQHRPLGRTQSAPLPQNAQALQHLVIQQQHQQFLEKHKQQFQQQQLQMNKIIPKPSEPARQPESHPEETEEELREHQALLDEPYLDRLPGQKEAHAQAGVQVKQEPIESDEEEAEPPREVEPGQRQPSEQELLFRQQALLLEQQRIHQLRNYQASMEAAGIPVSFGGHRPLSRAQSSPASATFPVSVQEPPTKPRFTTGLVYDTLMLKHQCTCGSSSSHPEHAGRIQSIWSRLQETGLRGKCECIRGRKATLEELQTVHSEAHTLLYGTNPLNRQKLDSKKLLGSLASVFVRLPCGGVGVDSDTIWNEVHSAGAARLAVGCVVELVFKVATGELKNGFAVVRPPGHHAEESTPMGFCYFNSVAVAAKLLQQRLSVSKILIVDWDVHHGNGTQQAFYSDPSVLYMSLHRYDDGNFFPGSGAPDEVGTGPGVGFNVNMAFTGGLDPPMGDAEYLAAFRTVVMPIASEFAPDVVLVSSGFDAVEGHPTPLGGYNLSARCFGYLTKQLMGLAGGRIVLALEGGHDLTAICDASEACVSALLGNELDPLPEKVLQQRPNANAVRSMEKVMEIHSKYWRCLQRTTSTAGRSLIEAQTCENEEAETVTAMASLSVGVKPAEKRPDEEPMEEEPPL

[24] = target: T3, Histone deacetylase 11 (Homo sapiens, UniProt Q96DB2); experiment: Inhibition of HDAC11 (unknown origin)
T3 sequence (Q96DB2 whole entry): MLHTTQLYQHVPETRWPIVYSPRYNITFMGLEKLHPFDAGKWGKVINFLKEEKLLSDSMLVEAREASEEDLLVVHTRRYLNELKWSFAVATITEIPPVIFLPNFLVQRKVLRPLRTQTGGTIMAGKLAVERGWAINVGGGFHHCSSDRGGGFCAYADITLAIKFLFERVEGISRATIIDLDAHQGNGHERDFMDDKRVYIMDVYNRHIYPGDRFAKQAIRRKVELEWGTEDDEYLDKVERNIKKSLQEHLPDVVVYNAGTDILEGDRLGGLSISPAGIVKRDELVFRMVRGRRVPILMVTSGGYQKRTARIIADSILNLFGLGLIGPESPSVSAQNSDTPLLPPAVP

[25] = target: Histone deacetylase 3 (Homo sapiens, UniProt O15379); experiment: Inhibition of HDAC3 (unknown origin)
Histone deacetylase 3, sequence (O15379 whole entry): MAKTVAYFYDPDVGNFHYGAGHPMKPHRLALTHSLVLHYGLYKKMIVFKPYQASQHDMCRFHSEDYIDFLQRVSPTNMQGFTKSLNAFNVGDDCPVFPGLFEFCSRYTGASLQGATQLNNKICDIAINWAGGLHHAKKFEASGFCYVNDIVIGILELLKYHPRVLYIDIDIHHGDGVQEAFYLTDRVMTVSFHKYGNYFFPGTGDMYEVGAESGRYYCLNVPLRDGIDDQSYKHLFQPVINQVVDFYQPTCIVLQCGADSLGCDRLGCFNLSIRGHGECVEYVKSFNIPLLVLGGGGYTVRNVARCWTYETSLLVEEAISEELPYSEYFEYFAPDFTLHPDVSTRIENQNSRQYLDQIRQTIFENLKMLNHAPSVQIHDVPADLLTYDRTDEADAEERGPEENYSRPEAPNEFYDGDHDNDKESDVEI

pIC50 [2]: 8.20
Structure (SMILES): CC(C)C[C@H](NC(=O)[C@H](Cc1ccccc1)NC(=O)c1cnccn1)B(O)O [BORTEZOMIB]
Activity [1]: Active | pIC50 [3]: 5.33 | pIC50 [4]: 5.12 | fold change (FC) [5]: 2.5

pIC50 [6]: 7.11 | pIC50 [13]: 5.24 | pIC50 [2]: 5.03 | pIC50 [14]: 5.37 | pIC50 [15]: 5.21 | pIC50 [16]: 7.72 | pIC50 [21]: 4.96 | pIC50 [23]: 7.77 | pIC50 [24]: 4.18 | pIC50 [25]: 5.42
Structure (SMILES): CCN(CC)CCNC(=O)c1ccc(-c2noc(C(F)(F)F)n2)cc1
Activity [7]: Active | Activity [8]: inactive | Activity [9]: inactive | Activity [10]: Active | Activity [11]: Active | residual activity [12]: 100% | inhibition [17]: 93% | pIC50 [3]: 5.06 | Activity [18]: Active | Activity [19]: Active | Activity [20]: 80% | Activity [22]: Active | pIC50 [4]: 4.65
